Reference: patent publication US10772840B2 (Charleston Laboratories, Inc., priority 2016, dated 2020)

What was measured:
[1] = Dissolution measurement by USP Apparatus 2 (Paddle Apparatus), HPLC analysis; format: physicochemical; conditions: in a capsule, 500 ml 0.1 N HCl pH 1.1, N=6
Procedure: Dissolution studies were conducted to measure the rates of dissolution of active ingredients using a USP Apparatus 2 (Paddle Apparatus) with a dissolution fluid of 500 ml deaerated 0.1 N HCl (i.e., pH 1.1) at 37.0+/−0.5° C. Dissolution samples were analyzed by HPLC.
Dissolution medium of 0.1N HCl was prepared by mixing approximately 85 ml of concentrated (12N) Hydrochloric Acid with 10 L of water. Stock promethazine HCl standard solution was prepared by adding approximately 30 ml of dissolution medium to 25.0 mg of dried Promethazine Hydrochloride USP reference standard in a 50 ml volumetric flash, diluted to volume with dissolution media, and mixed well. […] The resulting solution is diluted to volume with dissolution medium and mixed well.
The dissolution apparatus used is USP Apparatus 2 (Paddle Apparatus) with a speed of 50 rpm at 37.0° C.±0.5° C. Dissolution medium (500 ml) was Helium sparged for at least 10 minutes. N=6 samples were tested. Sample time point of 5, 10, 15, 20, 30, 45, 60, and 90 minutes (final time point at 250 rpm). Filters: QLA 10 μm in-line full flow porous filter or equivalent; chromafil 1.0 μm on-line glass fiber membrane filter or equivalent.
The dissolution apparatus was assembled and the paddle was positioned so that the distance between its lower edge and the lower inner surface of the vessel is within 25 mm±2 mm throughout the test. This step was repeated for each of the six vessels. The speed (50 rpm) and the temperature (37.0° C.±0.5° C.) were set. 500 mL of 0.1N HCl solution were placed into each of the six vessels, previously degassed via helium purge, degassed using degasser or other suitable means. The Dissolution medium was equilibrated to set temperature and the temperature of the dissolution medium was checked with a thermometer or thermocouple before starting the dissolution. Each of the six (6) capsules were accurately weighed and the weight was recorded. The dissolution test was started. Each capsule was dropped with sinker into vessels noting the station assigned to each recorded capsule weight. The shaft was rotated at 50 rpm. Samples were withdrawn by dissolution auttosampler at 5, 10, 15, 20, 30, 45, 60, and 90 minutes into HPLC vials, or were withdraw manually. Filters (QLA 10 μm in-line full flow porous filter or equivalent; chromafil 1.0 μm on-line glass fiber membrane filter or equivalent) were utilized, discarding at least the first 5 mL of the filtrate, and clear filtrate was transfered into HPLC vials. After withdrawing samples at the 60 minute time point, the paddle rotation speed was increased to 250 rpm until the next time point of 90 minutes.
HPLC conditions: Flow rate: 1.0 ml/min; Injection Volume: 10 μL; Column Temperature: 40° C.±2° C.; Wavelengths: 240 nm; Run Time: 7 minutes; Mobile Phase A was 0.2% TFA in Water, which was prepared by mixing well 2.0 ml of trifluoroacetic acid with 1 L of water. Mobile Phase B: 0.2% TFA in Acetonitrile, which was prepared by mixing well 2.0 ml of trifluoroacetic acid to 1 L of acetonitrile; and Gradient used was as follows in Table 8.
If a Water® dissolution autosampler was utilized, then the Empower Dissolution Software was used to calculate the profile. Calculation are performed using a validated excel spreadsheet. When the sample was performed manually, the volume correction was considered for the calculation.

[2] = Impurity profile (related substances) by HPLC, initial and after one month at 40° C. (stability study); format: physicochemical; conditions: HPLC percent area
Procedure: The percentages of related substances were measured using an HPLC.
Stock promethazine HCl selectivity solution was prepared by accurately weighing about 2 mg of EP promethazine for peak identification CRS and transferring into 1 mL of diluent (prepared by mixing 750 mL of mobile phase A and 250 mL of acetonitrile), followed by vortexing to dissolve.
Ten capsules were randomly selected and weighed. The contents of the ten capsules were emptied into a 500 mL volumetric flask. 300 mL of diluent was added and the mixture was sonicated in an ice bath for 40 minutes or until completely disintegrated with intermittent swirling. The temperature was equilibrated to room temperature and more diluent was added to volume.
Promethazine HCl impurity sample solution: stock solution sample was filtered through a 0.45 μm PVDF membrane, syringe filter or a 0.45 μm PTFE w/GMF membrane, syringe filter discarding the first 5 mL and collecting approximately 20 mL into an appropriate glass container. Fill an HPLC vial with the filtrate
The RT of the promethazine in the promethazine HCl selectivity solution is between 44.1 and 53.9.
Mobile Phase B: 0.2% TFA in Acetonitrile, which was prepared by mixing well 2.0 ml of trifluoroacetic acid to 1 L of acetonitrile; and Gradient used was as follows in Table 15.
All known and unknown impurities were calculated via percent area as follow:
[formula] Where: • Ru=Peak area of related substance in the sample solution • Rt=Sum of peak area of promethazine or sumatriptan and all related substances areas corresponding to respective peak in sample solution • RRF=Relative Response Factor for related substances
The formulation was examined for its stability after one month at 40° C.

[3] = after 1 month store at 40° C., 5 min, 50 rpm
[4] = after 1 month store at 40° C., 10 min, 50 rpm
[5] = after 1 month store at 40° C., 15 min, 50 rpm
[6] = after 1 month store at 40° C., 20 min, 50 rpm
[7] = after 1 month store at 40° C., 30 min, 50 rpm
[8] = after 1 month store at 40° C., 45 min, 50 rpm
[9] = after 1 month store at 40° C., 60 min, 50 rpm
[10] = after 1 month store at 40° C., 90 min (250 rpm after 60 min)
[11] = large batch, 90 min (250 rpm after 60 min)

CNS(=O)(=O)Cc1ccc2[nH]cc(CCN(C)C)c2c1 [Sumatriptan, Sumatriptan succinate]
Dissolution (% release), Max. [1, 3]: 77 | Dissolution (% release), Mean [1, 3]: 60 | Dissolution (% release), Min. [1, 3]: 47 | Dissolution (% release), Max. [1, 4]: 89 | Dissolution (% release), Mean [1, 4]: 76 | Dissolution (% release), Min. [1, 4]: 62 | Dissolution (% release), Max. [1, 5]: 91 | Dissolution (% release), Mean [1, 5]: 81 | Dissolution (% release), Min. [1, 5]: 69 | Dissolution (% release), Max. [1, 6]: 94 | Dissolution (% release), Mean [1, 6]: 85 | Dissolution (% release), Min. [1, 6]: 74 | Dissolution (% release), Max. [1, 7]: 95 | Dissolution (% release), Mean [1, 7]: 88 | Dissolution (% release), Min. [1, 7]: 80 | Dissolution (% release), Max. [1, 8]: 97 | Dissolution (% release), Mean [1, 8]: 91 | Dissolution (% release), Min. [1, 8]: 84 | Dissolution (% release), Max. [1, 9]: 98 | Dissolution (% release), Mean [1, 9]: 93 | Dissolution (% release), Min. [1, 9]: 86 | Dissolution (% release), Max. [1, 10]: 100 | Dissolution (% release), Mean [1, 10]: 98 | Dissolution (% release), Min. [1, 10]: 96 | Dissolution (% release), Max. ([1]; large batch, 5 min, 50 rpm): 73 | Dissolution (% release), Mean ([1]; large batch, 5 min, 50 rpm): 66 | Dissolution (% release), Min. ([1]; large batch, 5 min, 50 rpm): 56 | Dissolution (% release), Max. ([1]; large batch, 10 min, 50 rpm): 86 | Dissolution (% release), Mean ([1]; large batch, 10 min, 50 rpm): 80 | Dissolution (% release), Min. ([1]; large batch, 10 min, 50 rpm): 73 | Dissolution (% release), Max. ([1]; large batch, 15 min, 50 rpm): 89 | Dissolution (% release), Mean ([1]; large batch, 15 min, 50 rpm): 85 | Dissolution (% release), Min. ([1]; large batch, 15 min, 50 rpm): 81 | Dissolution (% release), Max. ([1]; large batch, 20 min, 50 rpm): 91 | Dissolution (% release), Mean ([1]; large batch, 20 min, 50 rpm): 88 | Dissolution (% release), Min. ([1]; large batch, 20 min, 50 rpm): 84 | Dissolution (% release), Max. ([1]; large batch, 30 min, 50 rpm): 93 | Dissolution (% release), Mean ([1]; large batch, 30 min, 50 rpm): 90 | Dissolution (% release), Min. ([1]; large batch, 30 min, 50 rpm): 87 | Dissolution (% release), Max. ([1]; large batch, 45 min, 50 rpm): 95 | Dissolution (% release), Mean ([1]; large batch, 45 min, 50 rpm): 93 | Dissolution (% release), Min. ([1]; large batch, 45 min, 50 rpm): 91 | Dissolution (% release), Max. ([1]; large batch, 60 min, 50 rpm): 96 | Dissolution (% release), Mean ([1]; large batch, 60 min, 50 rpm): 94 | Dissolution (% release), Min. ([1]; large batch, 60 min, 50 rpm): 92 | Dissolution (% release), Max. [1, 11]: 98 | Dissolution (% release), Mean [1, 11]: 98 | Dissolution (% release), Min. [1, 11]: 97 | Impurity percentages, all related substances combined ([2]; in a capsule stored at 40° C. for 1 month): None Detected | Impurity percentages, all related substances combined ([2]; in a capsule, initial (before storage)): 0.1%
